Test results: patent US20110184029A1, “PYRIDONE DERIVATIVES AS NON-NUCLEOSIDE REVERSE TRANSCRIPTASE INHIBITORS” (KOREA RESEARCH INSTITUTE OF CHEMICAL TECHNOLOGY, priority 2008, published 2011)

Assays:
HIV-IIIb = test: Antiviral assay in MT-2 / MT-4 cells infected with HIV-IIIb (CellTiter-Glo readout); type: cell-based; conditions: MT4, 120 h, 5 days, MT-2 or MT-4 cells not given
Protocol: For the antiviral assay utilizing MT-2 cells, 50 μl of 2× test concentration of 5-fold serially diluted compound in culture medium with 10% FBS was added to each well of a 96-well plate (9 concentrations) in triplicate. MT-2 cells were infected with HIV-IIIb at a multiplicity of infection (m.o.i) of 0.01 for 3 hours. Fifty microliters of infected cell suspension in culture medium with 10% FBS (˜1.5×10^4 cells) was then added to each well containing 50 μl of diluted compound. The plates were then incubated at 37° C. for 5 days. For the antiviral assay utilizing MT-4 cells, 20 μl of 2× test concentration of 5-fold serially diluted compound in culture medium with 10% FBS was added to each well of a 384-well plate (7 concentrations) in triplicate. MT-4 cells were next mixed with HIV-IIIb at an m.o.i. of 0.1 and 20 μl of virus/cell mixture (˜2000 cells) was immediately added to each well containing 20 μl of diluted compound. The plates were then incubated at 37° C. for 5 days. After 5 days of incubation, 100 μl of CellTiter-Glo™ Reagent (catalog #G7571, Promega Biosciences, Inc., Madison, Wis.) was added to each well containing MT-2 cells and 40 μl to each well containing MT-4 cells. Cell lysis was carried out by incubation at room temperature for 10 min and chemiluminescence was read.

[1] = Cytotoxicity assessment in uninfected MT-2 / MT-4 cells; type: cell-based; conditions: human, MT-2 or MT-4 cells not given
Protocol: For compound cytotoxicity assessment in MT-2 cells, the protocol was identical to that of the antiviral assay in MT-2 cells, except that uninfected cells and a 3-fold serial dilution of compounds were used. For cytotoxicity assessment in MT-4 cells, the protocol is identical to that of the antiviral assay in MT-4 cells, except that no virus was added. Cytotoxicity is expressed as CC50.

| SMILES | EC50 (HIV-IIIb) [nM] | melting point [°C] | CC50 at 5 days [1] [nM] |
| --- | --- | --- | --- |
| Cc1cc(C#N)cc(C(=O)c2c(CC3CC3)c(C)[nH]c(=O)c2C(C)C)c1 [Example 1, 3-(5-Cyclopropylmethyl-3-isopropyl-6-methyl-2-oxo-1,2-dihydro-pyridine-4-carbonyl)-5-methyl-benzonitrile] | < 100 | 222 to 224 | – |
| Cc1[nH]c(=O)c(C(C)C)c(C(=O)c2cc(C#N)cc(C#N)c2)c1CC1CC1 [Example 2, 5-(5-Cyclopropylmethyl-3-isopropyl-6-methyl-2-oxo-1,2-dihydro-pyridine-4-carbonyl)-isophthalonitrile] | < 100 | 266 to 267 | – |
| Cc1[nH]c(=O)c(C(C)C)c(C(=O)c2cc(Cl)cc(C#N)c2)c1CC1CC1 [Example 3, 3-Chloro-5-(5-cyclopropylmethyl-3-isopropyl-6-methyl-2-oxo-1,2-dihydro-pyridine-4-carbonyl)-benzonitrile] | < 100 | 237 to 238 | – |
| Cc1cc(C#N)cc(C(=O)c2c(CC3(CO)CC3)c(C)[nH]c(=O)c2C(C)C)c1 [Example 5, 3-[5-(1-Hydroxymethyl-cyclopropylmethyl)-3-isopropyl-6-methyl-2-oxo-1,2-dihydro-pyridine-4-carbonyl]-5-methyl-benzonitrile] | < 100 | – | – |
| Cc1[nH]c(=O)c(C(C)C)c([S+]([O-])c2cc(C#N)cc(C#N)c2)c1CC1CC1 (stereo not shown) [Example 6, 5-(5-Cyclopropylmethyl-3-isopropyl-6-methyl-2-oxo-1,2-dihydro-pyridin-4-sulfinyl)-isophthalonitrile] | < 100 | – | > 100000 |
| Cc1cc(C#N)cc(Sc2c(CC3CC3)c(C)[nH]c(=O)c2C(C)C)c1 [Example 7, 3-(5-(cyclopropylmethyl)-3-isopropyl-6-methyl-2-oxo-1,2-dihydropyridin-4-ylthio)-5-methylbenzonitrile] | < 100 | – | – |
| Cc1cc(C#N)cc([S+]([O-])c2c(CC3CC3)c(C)[nH]c(=O)c2C(C)C)c1 (stereo not shown) [Example 8, 3-(5-(cyclopropylmethyl)-3-isopropyl-6-methyl-2-oxo-1,2-dihydropyridin-4-ylsulfinyl)-5-methylbenzonitrile] | < 100 | – | – |
| Cc1cc(C#N)cc(S(=O)(=O)c2c(CC3CC3)c(C)[nH]c(=O)c2C(C)C)c1 [Example 9, 3-(5-Cyclopropylmethyl-3-isopropyl-6-methyl-2-oxo-1,2-dihydro-pyridine-4-sulfonyl)-5-methyl-benzonitrile] | < 100 | – | > 69000 |
| Cc1[nH]c(=O)c(C(C)C)c(C(=O)c2cc(C#N)cc(C(N)=O)c2)c1CC1CC1 [Example 10, 3-Cyano-5-(5-cyclopropylmethyl-3-isopropyl-6-methyl-2-oxo-1,2-dihydro-pyridine-4-carbonyl)-benzamide] | < 100 | – | – |
| Cc1cc(C#CCO)cc(C(=O)c2c(CC3CC3)c(C)[nH]c(=O)c2C(C)C)c1 [Example 11, 5-(cyclopropylmethyl)-4-(3-(3-hydroxyprop-1-ynyl)-5-methylbenzoyl)-3-isopropyl-6-methylpyridin-2 (1H)-one] | < 100 | – | – |
| Cc1[nH]c(=O)c(C(C)C)c(C(=O)c2cc(C#N)cc(C#CCO)c2)c1CC1CC1 [Example 12, 3-(5-Cyclopropylmethyl-3-isopropyl-6-methyl-2-oxo-1,2-dihydro-pyridine-4-carbonyl)-5-(3-hydroxy-prop-1-ynyl)-benzonitrile] | < 100 | – | – |
| Cc1cc(C#N)cc(C(=O)c2c(CC3CC3)c(CO)[nH]c(=O)c2C(C)C)c1 [Example 13, 3-(5-Cyclopropylmethyl-6-hydroxymethyl-3-isopropyl-2-oxo-1,2-dihydro-pyridine-4-carbonyl)-5-methyl-benzonitrile] | < 100 | – | – |
| CC(C)c1c(C(=O)c2cc(C#N)cc(C#N)c2)c(CC2CC2)c(CO)[nH]c1=O [Example 14, 5-(5-Cyclopropylmethyl-6-hydroxymethyl-3-isopropyl-2-oxo-1,2-dihydro-pyridine-4-carbonyl)-isophthalonitrile] | < 100 | – | – |
| Cc1cc(C#N)cc(C(=O)c2c(CC3CC3)c(CC#N)[nH]c(=O)c2C(C)C)c1 [Example 15, 3-(6-Cyanomethyl-5-cyclopropylmethyl-3-isopropyl-2-oxo-1,2-dihydro-pyridine-4-carbonyl)-5-methyl-benzonitrile] | < 100 | – | – |
